In paper PMC5218480 (PLoS ONE, 2017):

System: MV-4-11 cells
Assay: Gene expression microarray analysis (Affymetrix PrimeView) and GSEA
Format: cell-based, human
Design: RFU PODN (11730768_x_at) / Fold change /veh PODN (11730768_x_at) / RFU LINC00158 (11744669_a_at) / Fold change /veh LINC00158 (11744669_a_at) / RFU DUSP10 (11751237_a_at) / Fold change /veh DUSP10 (11751237_a_at) / RFU ID3 (11757404_x_at) / Fold change /veh ID3 (11757404_x_at) / RFU PLEKHG5 (11737974_s_at) / Fold change /veh PLEKHG5 (11737974_s_at) / RFU LRRC4B (11730491_at) / Fold change /veh LRRC4B (11730491_at) / RFU GIMAP4 (11747438_a_at) / Fold change /veh GIMAP4 (11747438_a_at) / RFU KRT8 (11758183_x_at) / Fold change /veh KRT8 (11758183_x_at) / RFU CNN1 (11734310_a_at) / Fold change /veh CNN1 (11734310_a_at) / RFU VPS37D (11726825_at) / Fold change /veh VPS37D (11726825_at) / RFU C10orf10 (11716522_x_at) / Fold change /veh C10orf10 (11716522_x_at) / RFU KIR2DL2 /// KIR2DL4 /// KIR2DL5A /// KIR2DL5B /// KIR2DS1 /// KIR2DS2 /// KIR2DS3 /// KIR2DS4 /// KIR3DL3 /// KIR3DL3 /// KIR3DS1 (11738374_at) / Fold change /veh KIR2DL2 /// KIR2DL4 /// KIR2DL5A /// KIR2DL5B /// KIR2DS1 /// KIR2DS2 /// KIR2DS3 /// KIR2DS4 /// KIR3DL3 /// KIR3DL3 /// KIR3DS1 (11738374_at) / RFU C1QL1 (11718748_at) / Fold change /veh C1QL1 (11718748_at) / RFU TMPRSS4 (11747572_a_at) / Fold change /veh TMPRSS4 (11747572_a_at) / RFU HAMP (11756126_x_at) / Fold change /veh HAMP (11756126_x_at) / RFU RNFT2 (11725882_a_at) / Fold change /veh RNFT2 (11725882_a_at) / RFU NR4A2 (11747474_a_at) / Fold change /veh NR4A2 (11747474_a_at) / RFU ABCC12 (11746883_a_at) / Fold change /veh ABCC12 (11746883_a_at) / RFU TMEM136 (11760407_x_at) / Fold change /veh TMEM136 (11760407_x_at) / RFU CLDN22 /// WWC2 (11732394_at) / Fold change /veh CLDN22 /// WWC2 (11732394_at) / RFU HLA-DPB1 (11760878_x_at) / Fold change /veh HLA-DPB1 (11760878_x_at) / RFU SPINT1 (11716480_a_at) / Fold change /veh SPINT1 (11716480_a_at) / RFU GAP43 (11754022_s_at) / Fold change /veh GAP43 (11754022_s_at) / RFU A4GNT (11735810_at) / Fold change /veh A4GNT (11735810_at) / RFU PRB3 (11715151_x_at) / Fold change /veh PRB3 (11715151_x_at) / RFU TUBB4B (11761932_at) / Fold change /veh TUBB4B (11761932_at) / RFU CAPN14 (11732068_a_at) / Fold change /veh CAPN14 (11732068_a_at) / RFU TMCC2 (11721928_a_at) / Fold change /veh TMCC2 (11721928_a_at) / RFU IRGQ (11745062_a_at) / Fold change /veh IRGQ (11745062_a_at) / RFU FAM174B (11720279_a_at) / Fold change /veh FAM174B (11720279_a_at) / RFU TMPRSS4 (11748680_a_at) / Fold change /veh TMPRSS4 (11748680_a_at) / RFU FAM212B (11763350_a_at) / Fold change /veh FAM212B (11763350_a_at) / RFU PLEKHG5 (11743358_a_at) / Fold change /veh PLEKHG5 (11743358_a_at) / RFU ZSCAN30 (11745921_a_at) / Fold change /veh ZSCAN30 (11745921_a_at) / RFU CMKLR1 (11741424_a_at) / Fold change /veh CMKLR1 (11741424_a_at) / RFU LOC101060620 /// MAPK8IP1 (11723275_at) / Fold change /veh LOC101060620 /// MAPK8IP1 (11723275_at) / RFU SPTSSB (11747773_x_at) / Fold change /veh SPTSSB (11747773_x_at) / RFU PRSS12 (11739890_at) / Fold change /veh PRSS12 (11739890_at) / RFU BIN1 (11741810_x_at) / Fold change /veh BIN1 (11741810_x_at) / RFU WNT11 (11732464_a_at) / Fold change /veh WNT11 (11732464_a_at) / RFU C10orf10 (11716521_a_at) / Fold change /veh C10orf10 (11716521_a_at) / RFU C5orf56 (11738089_at) / Fold change /veh C5orf56 (11738089_at) / RFU CYB561 (11721691_x_at) / Fold change /veh CYB561 (11721691_x_at) / RFU ANKRD19P (11752326_a_at) / Fold change /veh ANKRD19P (11752326_a_at) / RFU OR2T12 /// OR2T33 /// OR2T8 (11738714_s_at) / Fold change /veh OR2T12 /// OR2T33 /// OR2T8 (11738714_s_at) / RFU VCAN (11748164_a_at) / Fold change /veh VCAN (11748164_a_at) / RFU JSRP1 (11732532_at) / Fold change /veh JSRP1 (11732532_at) / RFU KRTAP10-11 (11738290_x_at) / Fold change /veh KRTAP10-11 (11738290_x_at) / RFU MYO3A (11730013_a_at) / Fold change /veh MYO3A (11730013_a_at) / RFU EBF3 (11725865_a_at) / Fold change /veh EBF3 (11725865_a_at) / RFU CAMK2N1 (11719241_x_at) / Fold change /veh CAMK2N1 (11719241_x_at) / RFU C5orf56 (11738088_a_at) / Fold change /veh C5orf56 (11738088_a_at) / RFU OLFML3 (11715873_a_at) / Fold change /veh OLFML3 (11715873_a_at) / RFU LOC100653217 /// NTM (11731650_a_at) / Fold change /veh LOC100653217 /// NTM (11731650_a_at) / RFU MAPK11 (11762145_a_at) / Fold change /veh MAPK11 (11762145_a_at) / RFU FIZ1 (11724087_x_at) / Fold change /veh FIZ1 (11724087_x_at) / RFU OASL (11726364_x_at) / Fold change /veh OASL (11726364_x_at) / RFU SOX15 (11748057_x_at) / Fold change /veh SOX15 (11748057_x_at) / RFU CD79A (11719716_a_at) / Fold change /veh CD79A (11719716_a_at) / RFU HIST1H1D (11736915_at) / Fold change /veh HIST1H1D (11736915_at) / RFU CASKIN2 (11723855_a_at) / Fold change /veh CASKIN2 (11723855_a_at) / RFU LOC730098 (11760151_x_at) / Fold change /veh LOC730098 (11760151_x_at) / RFU OR4N2 (11742367_at) / Fold change /veh OR4N2 (11742367_at) / RFU PRRT2 (11749266_a_at) / Fold change /veh PRRT2 (11749266_a_at) / RFU SNX32 (11753110_a_at) / Fold change /veh SNX32 (11753110_a_at) / RFU CDHR5 (11726645_a_at) / Fold change /veh CDHR5 (11726645_a_at) / RFU RCAN1 (11760418_a_at) / Fold change /veh RCAN1 (11760418_a_at) / RFU FAM167A (11723789_a_at) / Fold change /veh FAM167A (11723789_a_at) / RFU FAM26E (11764081_at) / Fold change /veh FAM26E (11764081_at) / RFU ISYNA1 (11749810_s_at) / Fold change /veh ISYNA1 (11749810_s_at) / RFU ACY1 (11761880_at) / Fold change /veh ACY1 (11761880_at) / RFU 11764098_at / Fold change /veh 11764098_at / RFU SAMD14 (11745864_x_at) / Fold change /veh SAMD14 (11745864_x_at) / RFU NPB (11741838_a_at) / Fold change /veh NPB (11741838_a_at) / RFU TMPRSS6 (11731388_a_at) / Fold change /veh TMPRSS6 (11731388_a_at) / RFU KRTAP10-2 (11738614_at) / Fold change /veh KRTAP10-2 (11738614_at) / RFU ARHGAP8 /// PRR5-ARHGAP8 (11727945_x_at) / Fold change /veh ARHGAP8 /// PRR5-ARHGAP8 (11727945_x_at) / RFU KRTAP5-7 /// NADSYN1 (11734609_at) / Fold change /veh KRTAP5-7 /// NADSYN1 (11734609_at) / RFU RASL12 (11751679_a_at) / Fold change /veh RASL12 (11751679_a_at) / RFU CDKN2B (11736163_a_at) / Fold change /veh CDKN2B (11736163_a_at) / RFU PRF1 (11729649_at) / Fold change /veh PRF1 (11729649_at) / RFU, ZNF638 /// ZNF638-IT1 / Fold change vs veh, ZNF638 /// ZNF638-IT1 / RFU, PANK3 / Fold change vs veh, PANK3 / RFU, SH3YL1 / Fold change vs veh, SH3YL1 / RFU, ZEB2 / Fold change vs veh, ZEB2 / RFU, NRIP1 / Fold change vs veh, NRIP1 / RFU, PTTG1IP / Fold change vs veh, PTTG1IP / RFU, CAPN2 / Fold change vs veh, CAPN2 / RFU, MED14 / Fold change vs veh, MED14 / RFU, SNORA58 / Fold change vs veh, SNORA58 / RFU, C1orf63 / Fold change vs veh, C1orf63 / RFU, LRRFIP1 / Fold change vs veh, LRRFIP1 / RFU, NDUFAF7 / Fold change vs veh, NDUFAF7 / RFU, SLC12A2 / Fold change vs veh, SLC12A2 / RFU, IBTK / Fold change vs veh, IBTK / RFU, ESF1 / Fold change vs veh, ESF1 / Fold change vs veh, TMEM50B / RFU, TAOK1 / Fold change vs veh, TAOK1 / RFU, ACBD3 / Fold change vs veh, ACBD3 / RFU, TMA16 / Fold change vs veh, TMA16 / RFU, RWDD3 / Fold change vs veh, RWDD3 / RFU, BCAT1 / Fold change vs veh, BCAT1 / RFU, EDEM3 / Fold change vs veh, EDEM3 / RFU, TMEM33 / Fold change vs veh, TMEM33 / RFU, WDR75 / Fold change vs veh, WDR75 / RFU, AHCTF1 / Fold change vs veh, AHCTF1 / RFU, TFRC / Fold change vs veh, TFRC / RFU, ZDHHC17 / Fold change vs veh, ZDHHC17 / RFU, NOM1 / Fold change vs veh, NOM1 / RFU, ARL8B / Fold change vs veh, ARL8B / RFU, ZBTB11 / Fold change vs veh, ZBTB11 / RFU, TAMM41 / Fold change vs veh, TAMM41 / RFU, KIAA1704 /// LOC100996395 / Fold change vs veh, KIAA1704 /// LOC100996395 / RFU, ING1 / Fold change vs veh, ING1 / RFU, TRMT61B / Fold change vs veh, TRMT61B / RFU, FUBP3 / Fold change vs veh, FUBP3 / RFU, TP53 / Fold change vs veh, TP53 / RFU, TNKS2 / Fold change vs veh, TNKS2 / RFU, ZFP14 / Fold change vs veh, ZFP14 / RFU, ACTR2 / Fold change vs veh, ACTR2 / RFU, PPP3R1 / Fold change vs veh, PPP3R1 / RFU, PIK3R1 / Fold change vs veh, PIK3R1 / RFU, HNRNPA1 / Fold change vs veh, HNRNPA1 / RFU, RNF170 / Fold change vs veh, RNF170 / RFU, ZNF28 / Fold change vs veh, ZNF28 / RFU, RNGTT / Fold change vs veh, RNGTT / RFU, OGT / Fold change vs veh, OGT / RFU, BRD1 / Fold change vs veh, BRD1 / RFU, MARS / Fold change vs veh, MARS / RFU, ZNF655 / Fold change vs veh, ZNF655 / RFU, FAHD1 / Fold change vs veh, FAHD1 / RFU, BDP1 / Fold change vs veh, BDP1 / RFU, LRRCC1 / Fold change vs veh, LRRCC1 / RFU, ARID1A / Fold change vs veh, ARID1A / RFU, ZNF146 / Fold change vs veh, ZNF146 / RFU, ZNF330 / Fold change vs veh, ZNF330 / RFU, GPN3 / Fold change vs veh, GPN3 / RFU, C9orf123 / Fold change vs veh, C9orf123 / RFU, N4BP2L2 / Fold change vs veh, N4BP2L2 / RFU, ARFIP1 / Fold change vs veh, ARFIP1 / RFU, FAM179B / Fold change vs veh, FAM179B / RFU, BCL10 / Fold change vs veh, BCL10 / RFU, UHRF1BP1L / Fold change vs veh, UHRF1BP1L / RFU, BET1 / Fold change vs veh, BET1 / RFU, CNOT2 / Fold change vs veh, CNOT2 / RFU, ZNF268 / Fold change vs veh, ZNF268 / Fold change vs veh, ZNF507 / RFU, DGCR2 / Fold change vs veh, DGCR2 / RFU, WDSUB1 / Fold change vs veh, WDSUB1 / Fold change vs veh, HSP90B1 /// MIR3652 / RFU, ADSS / Fold change vs veh, ADSS / RFU, GK / Fold change vs veh, GK / RFU, ZNF148 / Fold change vs veh, ZNF148 / RFU, TAF9 / Fold change vs veh, TAF9 / RFU, SLC1A5 / Fold change vs veh, SLC1A5 / RFU, SLMO2 / Fold change vs veh, SLMO2 / RFU, ABCC4 / Fold change vs veh, ABCC4 / RFU, LOC101060439 /// RAP1B / Fold change vs veh, LOC101060439 /// RAP1B / RFU, RFX7 / Fold change vs veh, RFX7 / RFU, GTPBP10 / Fold change vs veh, GTPBP10 / RFU, CNEP1R1 / Fold change vs veh, CNEP1R1 / RFU, BIVM-ERCC5 /// ERCC5 / Fold change vs veh, BIVM-ERCC5 /// ERCC5 / RFU, ILF3 / Fold change vs veh, ILF3 / RFU 11762660_at / Fold change /veh 11762660_at / RFU VCAN (11757783_s_at) / Fold change /veh VCAN (11757783_s_at) / RFU DDX43 (11728927_at) / Fold change /veh DDX43 (11728927_at) / RFU KRT8 (11758188_x_at) / Fold change /veh KRT8 (11758188_x_at) / RFU NKD1 (11759106_at) / Fold change /veh NKD1 (11759106_at) / RFU SRD5A1 (11742802_a_at) / Fold change /veh SRD5A1 (11742802_a_at) / RFU TPSAB1 /// TPSB2 (11721975_s_at) / Fold change /veh TPSAB1 /// TPSB2 (11721975_s_at) / RFU GSTM3 (11746129_a_at) / Fold change /veh GSTM3 (11746129_a_at) / RFU IL23R (11737362_x_at) / Fold change /veh IL23R (11737362_x_at) / RFU TMEM51 (11727254_a_at) / Fold change /veh TMEM51 (11727254_a_at) / RFU PIWIL2 (11732686_x_at) / Fold change /veh PIWIL2 (11732686_x_at) / RFU ORM1 (11744905_x_at) / Fold change /veh ORM1 (11744905_x_at) / RFU CCDC152 (11743942_at) / Fold change /veh CCDC152 (11743942_at) / RFU ECM1 (11717891_a_at) / Fold change /veh ECM1 (11717891_a_at) / RFU IL23R (11748794_a_at) / Fold change /veh IL23R (11748794_a_at) / RFU TNFAIP8L3 (11732012_x_at) / Fold change /veh TNFAIP8L3 (11732012_x_at) / RFU MBOAT4 (11741988_at) / Fold change /veh MBOAT4 (11741988_at) / RFU 11764193_at / Fold change /veh 11764193_at / RFU TMEM53 (11763286_at) / Fold change /veh TMEM53 (11763286_at) / RFU MAGEB2 (11727129_at) / Fold change /veh MAGEB2 (11727129_at) / RFU TMEM200A (11744735_a_at) / Fold change /veh TMEM200A (11744735_a_at) / RFU CCDC152 (11751479_a_at) / Fold change /veh CCDC152 (11751479_a_at) / RFU FAM211A (11726209_a_at) / Fold change /veh FAM211A (11726209_a_at) / RFU RGS16 (11746705_a_at) / Fold change /veh RGS16 (11746705_a_at) / RFU VCAN (11755009_s_at) / Fold change /veh VCAN (11755009_s_at) / RFU RHOB (11743442_s_at) / Fold change /veh RHOB (11743442_s_at) / RFU RGS16 (11720943_a_at) / Fold change /veh RGS16 (11720943_a_at) / RFU RGS16 (11720944_at) / Fold change /veh RGS16 (11720944_at) / RFU, VPS4B / Fold change vs veh, VPS4B / RFU, CREB1 / Fold change vs veh, CREB1 / RFU, DNAJC13 / Fold change vs veh, DNAJC13 / RFU, GNAQ / Fold change vs veh, GNAQ / RFU, CDK5R1 / Fold change vs veh, CDK5R1 / RFU, ZRANB3 / Fold change vs veh, ZRANB3 / RFU, CUL4A / Fold change vs veh, CUL4A / RFU, CCNY / Fold change vs veh, CCNY / RFU, UFL1 / Fold change vs veh, UFL1 / RFU, COG3 / Fold change vs veh, COG3 / RFU, DIAPH2 / Fold change vs veh, DIAPH2 / RFU, SKA2 / Fold change vs veh, SKA2 / RFU, AFF3 / Fold change vs veh, AFF3 / RFU, LMF1 / Fold change vs veh, LMF1 / RFU, IPO11 / Fold change vs veh, IPO11 / RFU, DFFB / Fold change vs veh, DFFB / RFU, FOXP1 / Fold change vs veh, FOXP1 / RFU, CARD8 / Fold change vs veh, CARD8 / RFU, STRN3 / Fold change vs veh, STRN3 / RFU, ADK / Fold change vs veh, ADK / RFU, RASSF2 / Fold change vs veh, RASSF2 / RFU, WIPF1 / Fold change vs veh, WIPF1 / RFU, LARP1B / Fold change vs veh, LARP1B / RFU, RASA1 / Fold change vs veh, RASA1 / RFU, RB1 / Fold change vs veh, RB1 / RFU, PPFIA1 / Fold change vs veh, PPFIA1 / RFU, MAT2A / Fold change vs veh, MAT2A / RFU, CCT5 / Fold change vs veh, CCT5 / RFU, WDR92 / Fold change vs veh, WDR92 / RFU, CUX1 / Fold change vs veh, CUX1 / RFU, TTC7A / Fold change vs veh, TTC7A / RFU, TMEM135 / Fold change vs veh, TMEM135 / RFU, DEPTOR / Fold change vs veh, DEPTOR / RFU, CPM / Fold change vs veh, CPM / RFU, DNAJB6 / Fold change vs veh, DNAJB6 / RFU, CACNA2D3 / Fold change vs veh, CACNA2D3 / RFU, DTX4 / Fold change vs veh, DTX4 / RFU, TFCP2 / Fold change vs veh, TFCP2 / RFU, GMCL1 /// GMCL1P1 / Fold change vs veh, GMCL1 /// GMCL1P1 / RFU, AEBP2 / Fold change vs veh, AEBP2 / RFU, SNHG1 /// SNORD22 /// SNORD25 /// SNORD26 /// SNORD27 /// SNORD28 /// SNORD29 /// SNORD31 / Fold change vs veh, SNHG1 /// SNORD22 /// SNORD25 /// SNORD26 /// SNORD27 /// SNORD28 /// SNORD29 /// SNORD31 / Fold change (Aza/veh), C12orf56 (ProbeSet 11735607_a_at) / Fold change (ACY-1035/veh), C12orf56 (ProbeSet 11735607_a_at) / Fold change (Aza/veh), FGFR1OP (ProbeSet 11751329_s_at) / Fold change (ACY-1035/veh), FGFR1OP (ProbeSet 11751329_s_at) / Fold change (Aza/veh), VPS36 (ProbeSet 11739960_a_at) / Fold change (ACY-1035/veh), VPS36 (ProbeSet 11739960_a_at) / RFU SYPL1 (11715823_x_at) / Fold change /veh SYPL1 (11715823_x_at) / RFU IGFBP7 (11715501_s_at) / Fold change /veh IGFBP7 (11715501_s_at) / RFU REEP3 (11722064_at) / Fold change /veh REEP3 (11722064_at) / RFU IGLL1 (11728026_x_at) / Fold change /veh IGLL1 (11728026_x_at): dose or concentration left out as unconfirmed
Conditions: MV-4-11 cells, 48 hours

## Nc1ccc(-c2cccs2)cc1NC(=O)c1ccc2c(c1)cc(C1CC1)n2CCN1CCOCC1 [ACY-1035]
  RFU VPS37D (11726825_at): 17.46 RFU
